Assay [1] concerns the target 5'-nucleotidase (Homo sapiens, UniProt P21589). In words: Inhibition of human CD73.
The target of assay [2] is T1, 5'-nucleotidase (Mus musculus, UniProt Q61503).
T1 sequence (Q61503 whole entry): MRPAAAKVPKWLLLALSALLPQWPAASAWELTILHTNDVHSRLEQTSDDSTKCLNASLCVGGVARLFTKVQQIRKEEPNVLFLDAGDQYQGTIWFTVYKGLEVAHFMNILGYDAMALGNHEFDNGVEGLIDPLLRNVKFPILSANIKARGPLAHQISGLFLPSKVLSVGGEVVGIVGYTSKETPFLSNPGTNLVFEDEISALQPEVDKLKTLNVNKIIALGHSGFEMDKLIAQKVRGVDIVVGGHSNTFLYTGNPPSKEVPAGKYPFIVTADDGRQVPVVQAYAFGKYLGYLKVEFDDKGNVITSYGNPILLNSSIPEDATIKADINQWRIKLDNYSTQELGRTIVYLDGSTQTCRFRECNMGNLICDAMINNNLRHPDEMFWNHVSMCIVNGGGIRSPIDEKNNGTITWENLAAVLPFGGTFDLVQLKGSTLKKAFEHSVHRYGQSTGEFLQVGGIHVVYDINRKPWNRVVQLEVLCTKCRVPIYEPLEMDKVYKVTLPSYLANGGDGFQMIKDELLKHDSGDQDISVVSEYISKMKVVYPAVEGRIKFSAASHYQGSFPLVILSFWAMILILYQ
In words: Inhibition of mouse CD73.

Assay [3] addresses T2, Ectonucleoside triphosphate diphosphohydrolase 1 (Mus musculus, UniProt P55772).
T2 sequence (P55772 whole entry): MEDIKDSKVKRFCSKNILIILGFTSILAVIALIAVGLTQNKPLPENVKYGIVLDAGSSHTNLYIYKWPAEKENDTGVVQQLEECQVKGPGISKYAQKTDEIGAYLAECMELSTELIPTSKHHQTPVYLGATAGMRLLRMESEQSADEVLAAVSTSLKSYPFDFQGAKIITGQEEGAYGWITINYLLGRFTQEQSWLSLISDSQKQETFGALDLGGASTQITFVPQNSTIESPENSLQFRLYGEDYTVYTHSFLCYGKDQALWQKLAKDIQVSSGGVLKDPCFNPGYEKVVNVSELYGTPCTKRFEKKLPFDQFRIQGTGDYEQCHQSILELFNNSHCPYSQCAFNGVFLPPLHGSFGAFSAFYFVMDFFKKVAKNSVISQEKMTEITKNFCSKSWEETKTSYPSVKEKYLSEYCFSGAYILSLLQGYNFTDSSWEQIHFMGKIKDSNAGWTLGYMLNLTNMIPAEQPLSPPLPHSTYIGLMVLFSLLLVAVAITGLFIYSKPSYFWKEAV
In words: Inhibition of mouse CD39.

For assay [4], the system named is MDA-MB-231. In words: Cytotoxicity against human MDA-MB-231 cells expressing CD73 assessed as reduction in cell viability by CCK8 assay. Format: functional, cell-based.
Assay [5] concerns MIA PaCa-2. The assay is described as follows: Cytotoxicity against human MIA PaCa-2 cells expressing CD73 assessed as reduction in cell viability by CCK8 assay. The class given is functional, cell-based. In general terms: Formazan colour is commonly taken as a measure of viable cells.
A short description of assay [6]: Selectivity ratio of IC50 for inhibition of human CD73 to IC50 for inhibition of mouse CD73.
Assay [7] can be described thus: Selectivity ratio of IC50 for inhibition of human CD73 to IC50 for inhibition of mouse CD39.

pIC50: −log10 of the molar value. Some results are limits rather than exact numbers.

Sequence of 5'-nucleotidase (Homo sapiens, UniProt P21589) (P21589 whole entry): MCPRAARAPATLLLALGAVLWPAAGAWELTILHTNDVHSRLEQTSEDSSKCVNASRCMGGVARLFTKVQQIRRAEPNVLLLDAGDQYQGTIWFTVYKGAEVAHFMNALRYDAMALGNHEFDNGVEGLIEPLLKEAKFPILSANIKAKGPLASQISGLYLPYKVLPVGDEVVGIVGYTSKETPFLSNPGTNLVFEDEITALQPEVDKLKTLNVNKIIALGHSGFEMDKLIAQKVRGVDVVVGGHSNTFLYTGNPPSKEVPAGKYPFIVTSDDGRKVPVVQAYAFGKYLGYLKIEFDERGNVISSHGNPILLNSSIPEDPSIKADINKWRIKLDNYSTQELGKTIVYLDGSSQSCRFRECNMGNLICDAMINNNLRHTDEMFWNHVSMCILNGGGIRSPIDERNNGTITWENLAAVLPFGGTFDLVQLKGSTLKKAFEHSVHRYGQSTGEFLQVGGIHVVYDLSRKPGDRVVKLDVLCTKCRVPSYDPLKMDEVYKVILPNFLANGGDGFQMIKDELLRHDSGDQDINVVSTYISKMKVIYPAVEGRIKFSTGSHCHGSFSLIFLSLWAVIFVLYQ

With `C=C(C)[C@@H]1CC[C@]2(CO)CC[C@]3(C)[C@H](CC[C@@H]4[C@@]5(C)CC[C@H](O)C(C)(C)[C@@H]5CC[C@]43C)[C@@H]12` [BETULIN], the pIC50 in assay [1] is 4.64; in assay [2] it was 4.30; in assay [3], 4.30; in assay [4], 4.61; in assay [5], 4.02.
For `O=c1oc2c(O)c(O)cc3c(=O)oc4c(O)c(O)cc1c4c23` [ELLAGIC ACID], the negative-log IC50 (pIC50) was 5.73 in assay [1]; 7.40 in assay [2]; 6.30 in assay [3]; 4.56 in assay [4]; 3.82 in assay [5]. Moreover, the Ratio IC50 in assay [6] came out at 46.5; in assay [7] it was 3.7.
Consider `Nc1ccn([C@@H]2O[C@H](CO)[C@@H](O)C2(F)F)c(=O)n1` [GEMCITABINE], for which the negative-log IC50 (pIC50) is 5.94 in assay [4] and 6.64 in assay [5].
In the case of `O=C(OC[C@H]1O[C@@H](OC(=O)c2cc(O)c(O)c(O)c2)[C@H](OC(=O)c2cc(O)c(O)c(O)c2)[C@@H](OC(=O)c2cc(O)c(O)c(O)c2)[C@@H]1OC(=O)c1cc(O)c(O)c(O)c1)c1cc(O)c(O)c(O)c1` [PENTAGALLOYL GLUCOSE], the pIC50 in assay [1] is 4.98; in assay [2], below 4.00; in assay [3] it was 5.81; in assay [4], 5.04; in assay [5] it was 4.14.
On to `Nc1ncnc2c1ncn2[C@@H]1O[C@H](COP(=O)(O)CP(=O)(O)O)[C@@H](O)[C@H]1O` [PHOSPHOMETHYLPHOSPHONIC ACID ADENOSYL ESTER], for which the pIC50 in assay [1] was 5.40; in assay [2], 5.33; in assay [3] it was below 4.00.

By pIC50 is commonly meant the negative decadic logarithm of the IC50, by convention in mol/L.

These data come from ChEMBL document CHEMBL4680324, “Discovery of natural product ellagic acid as a potent CD73 and CD39 dual inhibitor” (Bioorg Med Chem Lett, 2021).
